The values below come from patent US11242327B2, “Analgesic compounds” (RECURIUM IP HOLDINGS, LLC, priority 2017, dated 2022).

Structures can show the parent of a compound that is named as a salt. Where two headings read alike, the source gives them in different places.

What all share (format): in vivo
Data set [1] concerns male Sprague-Dawley rats. Description: Formalin Paw Test, rat, oral. The following applies: 30 mg/kg; for Early Phase, seconds of paw licking: early/acute phase (0-10 minutes); for Late Phase, seconds of paw licking: late/tonic phase (10-35 minutes). As for the experimental part:
One test compound or the vehicle was administered to each rat or mouse in each test group (8 rats or mice per group). Non-fasted male Sprague-Dawley rats weighing 200-225 g or non-fasted male ICR mice weighing 23±3 g were used. […] Responses were measured every 5 minutes after the formalin injection for 35 minutes. The results in Table 2 are for oral administration in rat and the results in Table 3 are for intraperitoneal administration in mouse. In Tables 2 and 3, 'A' designates <70 seconds of paw licking, 'B' designates >70 and <165 seconds of paw licking, and 'C' designates >165 seconds of paw licking.

The test system of data set [2] is male Sprague-Dawley rats. In words: UVB Inflammatory Pain Test (thermal hyperalgesia). Conditions: rat, oral; for paw withdrawal latency, 1 h: 1 h after dosing; for paw withdrawal latency, 2 h: 2 h after dosing; for paw withdrawal latency, 4 h: 4 h after dosing. As for the experimental part:
UVB irradiation to the surface of the hind paw was used to induce cutaneous inflammatory pain in non-fasted male Sprague-Dawley rats weighing 175-300 g. On Day −3, animals were restrained and the plantar surface of the left hind paw was exposed to 350 mJoules/cm^2 of UVB irradiation using a narrow band UVB light source (Daavlin®, Bryan, Ohio). Following UVB irradiation, animals were returned to their home cage. Thermal hyperalgesia was assessed prior to dosing and approximately 1, 2, and 4 hours after dosing on Day 0 using a radiant heat plantar test apparatus (IITC Life Sciences©; Woodland Hills, Calif.). Animals were placed in individual acrylic chambers on a glass platform warmed to 30±2° C. and allowed to acclimate to their surroundings for a minimum of 15 minutes before testing. The stimulus was presented to the plantar surface and the timer was activated. The stimulus intensity was set such that pre-injury paw withdrawal latencies were approximately 12-18 seconds. Paw withdrawal latency values were recorded at the first observed nocifensive behavior (paw withdrawal, flinching, biting and/or licking). Three paw withdrawal latencies were measured for each hind paw per time point. The mean of the 3 values was taken as the paw withdrawal latency for that time point. A maximum cutoff latency of 30 seconds was used to prevent injury to the animal. The mean and standard error of the mean (SEM) were determined for each paw for each treatment group at each time point. Test compounds were administered orally at concentrations of 3, 10, 30 or 100 mg/kg; celecoxib was administered orally at a concentration of 30 mg/kg; and acetaminophen was administered orally at a concentration of 300 mg/kg. The control group received the vehicle (sterile water). In Table 4, ‘A’ designates >8 seconds of paw withdrawal latency, ‘B’ designates >6 and <8 seconds of paw withdrawal latency, and ‘C’ designates <6 seconds of paw withdrawal latency.
The results provided in Table 4 are for oral administration in rats. […] Furthermore, while acetaminophen was dosed at 300 mg/kg, compounds of Formulae (Ie), (Ih) and (Ik), or a pharmaceutically acceptable salt of any of the foregoing, were dosed at 3 mg/kg, 10 mg/kg and 100 mg/kg.

Data set [3] can be described thus: Bioavailability Test (rat pharmacokinetics). Conditions: for F: PO 30 mg/kg vs IV 3 mg/kg; for Vd: read-out: Vdss. The method, then: Oral bioavailability of compounds of Formulae (Ie), (Ih), (Ik), and (Ir), or a pharmaceutically acceptable salt of any of the foregoing, were evaluated in fasted male Sprague-Dawley (SD) rats weighing 200-225g. Compounds were dosed at 3 mg/kg (IV) and 30 mg/kg (PO). Unless otherwise noted, compounds were dissolved in 0.9% saline for IV dosing and 100% sterile water for PO dosing. Pharmacokinetic parameters were determined using Phoenix WinNonlin (v7.0). […]

Data set [4] concerns male Sprague-Dawley rats. In words: Spinal Nerve Ligation (SNL) Neuropathic Pain Test. Conditions: rat, oral, 100 mg/kg. As for the experimental part:
Neuropathy was induced in non-fasted male Sprague-Dawley rats weighing 75-100 g by surgically ligating the 4th and 5th lumbar spinal nerves (L4 and L5), a procedure also known as spinal nerve ligation (SNL). Animals were placed in individual acrylic chambers on a metal mesh surface and allowed to acclimate to their surroundings for a minimum of 15 minutes before testing. Mechanical sensitivity was assessed using 8 Semmes-Weinstein filaments (Stoelting©; Wood Dale, Ill., USA) with varying stiffness (0.4, 0.6, 1.0, 2.0, 4.0, 6.0, 8.0, and 15 g) according to an up-down method to determine 50% response thresholds. Each filament was presented perpendicular to the plantar surface with sufficient force to cause slight buckling against the paw and held for approximately 6 seconds or until a positive response is noted (paw sharply withdrawn). Testing was initiated with the 2.0 g filament. In the absence of a paw withdrawal response, the next stronger stimulus was presented. In the event of paw withdrawal, the next weaker stimulus was used. This process was repeated until 4 responses after the initial change in response (no response to positive response or positive response to no response) were obtained. […] The 50% response threshold was calculated using the formula: 50% response threshold (g)=(10^(Xf+kδ))/10,000;
Xf=value (in log units) of the final von Frey filament used;
k=tabular value for the pattern of positive/negative responses (See Chaplan, et al. “Quantitative Assessment of Tactile Allodynia in the Rat Paw” J. Neurosci. Meth. 53.1 (1994): 56-63);
[…] =mean difference (in log units) between stimuli.
The mean and standard error of the mean (SEM) were determined for each paw for each treatment group at each time point. Thresholds were determined prior to surgery and again 14 days later. After 14 days, test or control compounds were administered and thresholds were again determined 1, 2, and 4 hours after compound administration. Median response thresholds in compound-treated animals were compared to those in vehicle treated animals to determine anti-allodynic efficacy of test and control compounds. Test compounds were administered orally at concentrations of 10, 30 or 100 mg/kg and gabapentin was administered orally at a concentration of 100 mg/kg. The control group received the vehicle (sterile water). In Table 7, ‘A’ designates a 50% threshold of ≥8 grams, ‘B’ designates a 50% threshold of ≥6 and <8 grams, and ‘C’ designates a 50% threshold of <6 grams.
The results provided in Table 7 are for oral administration in rats.

Setting [5] is: male, Sprague-Dawley, in vivo, IV 3 mg/kg, 0.9% saline.
Where [6] appears, read: male, Sprague-Dawley, in vivo, PO 30 mg/kg, sterile water.
[7] abbreviates: male, Sprague-Dawley, in vivo, IV 3 mg/kg, DMSO, PEG400, and 30% HPβCD (5/20/75).
The mark [8] stands for this setting: male, Sprague-Dawley, in vivo, PO 30 mg/kg, PEG400, PVP, Tween 80, 0.5% CMC in water (9/0.5/0.5/90).

By AUC(0-inf) is commonly meant the area under the concentration-time curve extrapolated to infinity. High values mean more exposure, low ones less exposure. The clearance is a measure of how efficiently the substance is removed, as volume per time. A lower clearance goes with inefficient removal. For orientation: half-life means the time in which the quantity being followed falls by half. A high value points to slow loss. What is called Cmax is the peak of the concentration-time curve. For orientation: Tmax means the time at which the peak concentration occurs. `Cl.O=C(O)CNC12CC(C(F)(F)F)(C1)C2` [Compound 6, (3-(trifluoromethyl)bicyclo[1.1.1]pentan-1-yl)glycine hydrochloride]: in the data set with male Sprague-Dawley rats [1], the “Early Phase, seconds of paw licking” value is recorded as “A (<70 seconds of paw licking)”; the “Late Phase, seconds of paw licking” value was “B (>70 and <165 seconds of paw licking)”. In the data set with male Sprague-Dawley rats [2] (3 mg/kg), the “paw withdrawal latency, 1 h” value is “C (<6 seconds of paw withdrawal latency)”; the “paw withdrawal latency, 2 h” value was “B (>6 and <8 seconds of paw withdrawal latency)”; the “paw withdrawal latency, 4 h” value is given as “A (>8 seconds of paw withdrawal latency)”. Also, in the data set on male Sprague-Dawley rats [2] (10 mg/kg), the “paw withdrawal latency, 1 h” value was “B (>6 and <8 seconds of paw withdrawal latency)”; the “paw withdrawal latency, 2 h” value was “B (>6 and <8 seconds of paw withdrawal latency)”; the “paw withdrawal latency, 4 h” value is “B (>6 and <8 seconds of paw withdrawal latency)”. In addition, in the data set with male Sprague-Dawley rats [2] (30 mg/kg), the “paw withdrawal latency, 1 h” value was “A (>8 seconds of paw withdrawal latency)”; the “paw withdrawal latency, 2 h” value is “B (>6 and <8 seconds of paw withdrawal latency)”; the “paw withdrawal latency, 4 h” value is “B (>6 and <8 seconds of paw withdrawal latency)”. In addition, in the data set with male Sprague-Dawley rats [2] (100 mg/kg), the “paw withdrawal latency, 1 h” value was “A (>8 seconds of paw withdrawal latency)”; the “paw withdrawal latency, 2 h” value is “A (>8 seconds of paw withdrawal latency)”; the “paw withdrawal latency, 4 h” value was “B (>6 and <8 seconds of paw withdrawal latency)”. Also, in data set [3], the F stood at 134%. In data set [3] (setting [5]), the AUC(0-inf) was found to be 1.8 µM·h, the clearance was found to be 121 mL/min/kg, the half-life is 0.15 h and the Vd was determined as 0.79 L/kg. For the same compound, in data set [3] (setting [6]), the AUC(0-inf) was found to be 29 µM·h, the Cmax came to 32 µM, the Tmax stood at 0.22 h and the half-life was 1.6 h.

For `CC(F)(F)c1csc(C23CC(N)(C2)C3)n1` [Compound 25, 3-(4-(1,1-difluoroethyl)thiazol-2-yl)bicyclo[1.1.1]pentan-1-amine hydrochloride], in the data set on male Sprague-Dawley rats [1], the “Early Phase, seconds of paw licking” value was “A (<70 seconds of paw licking)” and the “Late Phase, seconds of paw licking” value is reported as “A (<70 seconds of paw licking)”. The F in data set [3] (vehicles of footnote a) was 115%. For the same compound, in data set [3] (setting [7]), the AUC(0-inf) was 13 µM·h, the clearance was 17 mL/min/kg, the half-life was 3.7 h and the Vd is 3.2 L/kg. Moreover, in data set [3] (setting [8]), the peak level (Cmax) was 24 µM and the Tmax is 1.2 h. Also, in data set [3] (male, Sprague-Dawley, in vivo, PO 30 mg/kg, PEG400, PVP, Tween 80, 0.5% CMC in water (9/0.5/0.5/90), read-out: AUC24h), the AUC(0-t) is 144 µM·h.

With `O=C(CO)NC12CC(C(F)(F)F)(C1)C2` [Compound 7, 2-Hydroxy-N-(3-(trifluoromethyl)bicyclo[1.1.1]pentan-1-yl)acetamide], in the data set on male Sprague-Dawley rats [1], the “Early Phase, seconds of paw licking” value was “A (<70 seconds of paw licking)”; the “Late Phase, seconds of paw licking” value is “B (>70 and <165 seconds of paw licking)”. Further, in the data set with male Sprague-Dawley rats [2] (3 mg/kg), the “paw withdrawal latency, 1 h” value is “B (>6 and <8 seconds of paw withdrawal latency)”; the “paw withdrawal latency, 2 h” value is “B (>6 and <8 seconds of paw withdrawal latency)”; the “paw withdrawal latency, 4 h” value was “B (>6 and <8 seconds of paw withdrawal latency)”. In the data set with male Sprague-Dawley rats [2] (10 mg/kg), the “paw withdrawal latency, 1 h” value is given as “C (<6 seconds of paw withdrawal latency)”; the “paw withdrawal latency, 2 h” value was “C (<6 seconds of paw withdrawal latency)”; the “paw withdrawal latency, 4 h” value is “B (>6 and <8 seconds of paw withdrawal latency)”. Besides, in the data set with male Sprague-Dawley rats [2] (30 mg/kg), the “paw withdrawal latency, 1 h” value is “B (>6 and <8 seconds of paw withdrawal latency)”; the “paw withdrawal latency, 2 h” value was “B (>6 and <8 seconds of paw withdrawal latency)”; the “paw withdrawal latency, 4 h” value is “B (>6 and <8 seconds of paw withdrawal latency)”. Besides, in the data set on male Sprague-Dawley rats [2] (100 mg/kg), the “paw withdrawal latency, 1 h” value was “C (<6 seconds of paw withdrawal latency)”; the “paw withdrawal latency, 2 h” value is “C (<6 seconds of paw withdrawal latency)”; the “paw withdrawal latency, 4 h” value is “B (>6 and <8 seconds of paw withdrawal latency)”. In data set [3], this compound showed an F of 138%. In data set [3] (setting [5]), the AUC(0-inf) stood at 9 µM·h, the clearance came out at 27 mL/min/kg, the half-life was 2.3 h and the Vd was 2.5 L/kg. Also, in data set [3] (setting [6]), the AUC(0-inf) came to 119 µM·h, the concentration peaked (Cmax) at 67 µM, the time to peak (Tmax) came to 0.19 h and the half-life is 2.5 h.

`NCC1(CC(=O)O)CCCCC1` [Gabapentin, reference compound]: the “50% response threshold, 1 h” value in the data set with male Sprague-Dawley rats [4] (1 h after administration) is “B (a 50% threshold of ≥6 and <8 grams)”. In addition, in the data set on male Sprague-Dawley rats [4] (2 h after administration), the “50% response threshold, 2 h” value was “A (a 50% threshold of ≥8 grams)”. In the data set with male Sprague-Dawley rats [4] (4 h after administration), the “50% response threshold, 4 h” value is “A (a 50% threshold of ≥8 grams)”.
